From PubChem BioAssay (NCI) come the findings set out here.

Some test systems named below: UACC-257 melanoma; HCT-116 colon; RPMI-8226 leukemia; U251 CNS; HL-60(TB) leukemia; DU-145 prostate; SNB-75 CNS; NCI/ADR-RES ovarian; HT29 colon; NCI-H23 lung.
Test in all cases: growth of human tumour cells (NCI), 48 h

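Grown in 96-well plates, cells were treated for 48 hours with each compound at five concentrations. Insufficient inhibition: endpoint recorded as highest concentration tested. GI50 is the concentration that inhibits growth by half. TGI denotes the concentration required for complete inhibition of growth.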 A value given as a limit tells only on which side of the number the result lay.

As to `C(=C\c1cc(-c2ccc3ccccc3n2)nc2ccc3ccccc3c12)/c1ccc2ccccc2n1`, the TGI in the assay on UACC-257 melanoma, in the assay on HCT-116 colon, in the assay with RPMI-8226 leukemia, in the assay on U251 CNS, in the assay on HL-60(TB) leukemia and with DU-145 prostate was > 100 µM throughout. The results for the TGI in the assay with SNB-75 CNS, in the assay with NCI/ADR-RES ovarian and in the assay with HT29 colon were 97.9 µM, > 100 µM and > 100 µM, respectively.
As to `Cc1ccc(S(=O)(=O)NC(=O)NC(Cc2ccc(O)c(O)c2)C(=O)O)cc1` (stereo not given), the TGI in the assay with NCI-H23 lung, with UACC-257 melanoma, in the assay with HCT-116 colon, in the assay with RPMI-8226 leukemia, in the assay on U251 CNS and in the assay with HL-60(TB) leukemia was > 100 µM each time. Besides, the TGI with DU-145 prostate, in the assay on NCI/ADR-RES ovarian and with HT29 colon was > 100 µM in each case.
Consider `c1ccc(C(CCN2CC3CCC(CC3)C2)c2ccccc2)cc1`, for which the TGI is 36.1 µM with NCI-H23 lung; 31.9 µM with UACC-257 melanoma; 63.8 µM in the assay on HCT-116 colon; 36.7 µM in the assay on RPMI-8226 leukemia; 35.1 µM with U251 CNS; > 100 µM in the assay on DU-145 prostate. For the same compound, the figures for the TGI in the assay with SNB-75 CNS, in the assay with NCI/ADR-RES ovarian and in the assay with HT29 colon were 85.9 µM, 58.3 µM and 48.4 µM, respectively.
`CCN(CC)CCCOc1cc2c(cc1OC)C(=O)N1CCC[C@H]1C=N2`: the TGI in the assay on UACC-257 melanoma was > 100 µM; in the assay on HCT-116 colon, > 100 µM; with RPMI-8226 leukemia, 53.8 µM; in the assay on U251 CNS, > 100 µM; in the assay with HL-60(TB) leukemia it was > 100 µM; in the assay on DU-145 prostate, > 100 µM. Also, the TGI is > 100 µM in the assay on NCI/ADR-RES ovarian and 39.5 µM in the assay with HT29 colon.
For the compound `Cc1cc2nc(N3C(=O)/C(=C/c4ccc(Cl)cc4)N=C3c3ccccc3)sc2cc1C`, the TGI was > 100 µM with UACC-257 melanoma; 53.9 µM in the assay on HCT-116 colon; > 100 µM in the assay on RPMI-8226 leukemia; 84.7 µM with U251 CNS; 51.7 µM in the assay with HL-60(TB) leukemia; > 100 µM with DU-145 prostate. Moreover, the TGI was 63.9 µM with SNB-75 CNS, 87.3 µM in the assay with NCI/ADR-RES ovarian and 63.2 µM with HT29 colon.
For the compound `CC(=O)Oc1ccc(/C=C/C(=O)O[C@H]2CCCC[C@@H]2OC(=O)/C=C/c2ccc(OC(C)=O)c(OC(C)=O)c2)cc1OC(C)=O`, the TGI was 27 µM in the assay with NCI-H23 lung; 52.6 µM in the assay with UACC-257 melanoma; 20.3 µM in the assay with HCT-116 colon; 31.9 µM with RPMI-8226 leukemia; > 100 µM with U251 CNS; 33.7 µM in the assay with DU-145 prostate. In addition, the TGI was 58.3 µM with SNB-75 CNS, > 100 µM in the assay with NCI/ADR-RES ovarian and > 100 µM with HT29 colon.
For the compound `O=C(OCc1ccccc1)N1CCN(C(=O)OCc2ccccc2)CCN(C(=O)OCc2ccccc2)CCN(C(=O)OCc2ccccc2)CCN(C(=O)OCc2ccccc2)CC1`, the TGI in the assay on UACC-257 melanoma was 73.1 µM; in the assay with HCT-116 colon, > 100 µM; in the assay on U251 CNS, > 100 µM; in the assay with DU-145 prostate, > 100 µM; with SNB-75 CNS it was 96.6 µM; in the assay on NCI/ADR-RES ovarian, > 100 µM.
On to `CC1CCc2sc3[nH]c(=S)n(-c4ccccc4)c(=O)c3c2C1` (stereo not given), for which the TGI in the assay with NCI-H23 lung, with UACC-257 melanoma, with HCT-116 colon, in the assay on RPMI-8226 leukemia, in the assay on U251 CNS and in the assay with DU-145 prostate was > 100 µM in each case. The figures for the TGI in the assay on SNB-75 CNS, in the assay with NCI/ADR-RES ovarian and in the assay with HT29 colon were 91 µM, > 100 µM and > 100 µM, respectively.
Regarding `C[C@]1(O)O[C@@H]2OCC[C@@H]2C2=C1C(=O)c1ccccc1C2=O`, the TGI is 31.6 µM in the assay on NCI-H23 lung; 31 µM with UACC-257 melanoma; 20.9 µM in the assay on RPMI-8226 leukemia; 29.8 µM with U251 CNS; 33.2 µM in the assay with HL-60(TB) leukemia; 30.4 µM in the assay on DU-145 prostate. In addition, the TGI in the assay on SNB-75 CNS was 74 µM; in the assay on NCI/ADR-RES ovarian, 45.8 µM; in the assay with HT29 colon it was > 100 µM.
Turning to `C=C(C)[C@@H]1CCC2=C[C@H](CC(C)=CC3=CC(C)=C(O3)[C@@H]1OC)OC2=O`, the TGI in the assay with UACC-257 melanoma, in the assay on RPMI-8226 leukemia, with U251 CNS, in the assay on HL-60(TB) leukemia, with DU-145 prostate and in the assay on SNB-75 CNS was > 100 µM in each case. Also, in the assay with NCI/ADR-RES ovarian, the TGI was > 100 µM.
For the compound `NC1CC(=O)c2sccc21` (stereo not given), the TGI with NCI-H23 lung, with UACC-257 melanoma, with HCT-116 colon, in the assay on RPMI-8226 leukemia, in the assay on U251 CNS and in the assay on DU-145 prostate was > 100 µM each time. The TGI with SNB-75 CNS, with NCI/ADR-RES ovarian and in the assay on HT29 colon was > 100 µM in each case.
On to `CC(=O)O[C@H]1C[C@H]2C(=S)Nc3ccccc3C(=S)N2C1`, for which the TGI in the assay on NCI-H23 lung, with UACC-257 melanoma, in the assay with HCT-116 colon, with RPMI-8226 leukemia, with U251 CNS and with DU-145 prostate was > 100 µM in each case. The TGI with SNB-75 CNS, in the assay with NCI/ADR-RES ovarian and with HT29 colon was > 100 µM in each case.
Take `Oc1ccc(C#CCOc2ccccc2)cc1CNCCN(Cc1ccccn1)Cc1ccccn1`: the GI50 in the assay on NCI-H23 lung was 1.83 µM; in the assay with UACC-257 melanoma it was 2.55 µM; in the assay with RPMI-8226 leukemia it was 1.53 µM; with U251 CNS, 0.668 µM; in the assay with HL-60(TB) leukemia, 1.19 µM; in the assay with DU-145 prostate, 1.08 µM. The GI50 in the assay on SNB-75 CNS was 1.24 µM; with NCI/ADR-RES ovarian it was 1.83 µM; with HT29 colon it was 2.54 µM. Also, the TGI amounted to 5.51 µM in the assay with NCI-H23 lung; 6.83 µM in the assay on UACC-257 melanoma; 6.2 µM with RPMI-8226 leukemia; 5.16 µM with U251 CNS; 4.21 µM in the assay on HL-60(TB) leukemia; 2.95 µM in the assay with DU-145 prostate. Moreover, the values for the TGI in the assay on SNB-75 CNS, with NCI/ADR-RES ovarian and in the assay on HT29 colon were 4.13 µM, 6.68 µM and 12.6 µM, respectively.
